Data from patent US20060058374A1, “Urotensin II receptor agents” (priority 2002, published 2006).
Where two headings read alike, the source gives them in different places.

Assays:
Assay type in all cases: cell-based
CCKa = molecular target: T1, CCKa (Homo sapiens, UniProt P32238); assay: R-SAT assay, CCKa; conditions: percent maximal activation relative to control compound
T1 construct: expressed in transfected cells; host or cells: NIH3T3
Description: (§1) The test compound of Formula III was screened according to a modification of the method described in U.S. Pat. No. 5,912,312. The method, herein referred to as Method 1, consists of the following:
(§2) Receptor Selection and Amplification (R-SAT) Assays.
(§3) R-SAT assays were performed with minor modifications from that previously described (6). Briefly, NIH3T3 cells were grown in tissue culture treated rollerbottles to 40-50% confluence. Cells were transfected for 12-16 hours with plasmid DNAs using superfect (Qiagen Inc.) as per manufacture's protocols. R-SAT's were generally performed with 10 μg/rollerbottle of receptor and 50 μg/rollerbottle of Beta-galactosidase plasmid DNA. All receptor and G-protein constructs used were in the PSI mammalian expression vector (Promega Inc.). The transfected cells were then trypsinized and frozen in DMEM containing 10% DMSO. Frozen cells were later thawed, plated at 10,000-40,000 cells per well of a 96 ½ area plate that contained drug. […] Media was then removed from the plates and marker gene activity was measured by the addition of the beta-galactosidase substrate ONPG (in PBS with 5% NP-40). The resulting colorimetric reaction was measured in a spectrophotometric plate reader (Titertek Inc.) at […].
(§4) EC50, IC50 and Ki are presented as the negative of the calculated potency in Molar.

urotensin II receptor = molecular target: T2, urotensin II receptor (Homo sapiens, UniProt Q9UKP6); assay: R-SAT assay, Urotensin II receptor
T2 construct: expressed in transfected cells; host or cells: NIH3T3
T2 sequence (Q9UKP6 1-389): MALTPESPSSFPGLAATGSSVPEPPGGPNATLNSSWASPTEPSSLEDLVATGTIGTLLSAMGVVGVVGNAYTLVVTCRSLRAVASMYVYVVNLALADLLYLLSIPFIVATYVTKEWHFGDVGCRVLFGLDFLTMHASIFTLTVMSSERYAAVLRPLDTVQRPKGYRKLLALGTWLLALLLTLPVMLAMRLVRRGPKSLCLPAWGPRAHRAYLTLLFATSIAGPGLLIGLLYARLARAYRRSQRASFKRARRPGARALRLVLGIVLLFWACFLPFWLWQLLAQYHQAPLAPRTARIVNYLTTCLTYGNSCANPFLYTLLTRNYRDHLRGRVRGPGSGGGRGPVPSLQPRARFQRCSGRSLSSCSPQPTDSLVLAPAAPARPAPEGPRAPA
Description: as §1, §2
R-SAT assays were performed with minor modifications from that previously described (6). Briefly, NIH3T3 cells were grown in tissue culture treated rollerbottles to 40-50% confluence. Cells were transfected for 12-16 hours with plasmid DNAs using superfect (Qiagen Inc.) as per manufacture's protocols. R-SAT's were generally performed with 10 μg/rollerbottle of receptor and 50 μg/rollerbottle of Beta-galactosidase plasmid DNA. All receptor and G-protein constructs used were in the PSI mammalian expression vector (Promega Inc.). The transfected cells were then trypsinized and frozen in DMEM containing 10% DMSO. Frozen cells were later thawed, plated at 10,000-40,000 cells per well of a 96 ½ area plate that contained drug. Cells were then grown in a humidified atmosphere with 5% ambient CO2 for five days. Media was then removed from the plates and marker gene activity was measured by the addition of the beta-galactosidase substrate ONPG (in PBS with 5% NP-40). The resulting colorimetric reaction was measured in a spectrophotometric plate reader (Titertek Inc.) at […].
as §4

Histamine H1 = molecular target: T3, Histamine H1 (Homo sapiens, UniProt P35367); assay: R-SAT assay, Histamine H1; conditions: competitive antagonist mode; percent maximal inhibition relative to control standard compound
T3 construct: expressed in transfected cells; host or cells: NIH3T3 cells, receptor plasmid in PSI mammalian expression vector (Promega)
Description: as §1, §2, §3, §4

Serotonin 5HT-1E = molecular target: T4, Serotonin 5HT-1E (Homo sapiens, UniProt P28566); assay: R-SAT assay, Serotonin 5HT-1E; conditions: percent maximal activation relative to control compound
T4 construct: expressed in transfected cells; host or cells: NIH3T3
Description: as §1, §2, §3, §4

CRF2a = molecular target: T5, CRF2a (Homo sapiens, UniProt Q13324); assay: R-SAT assay, CRF2a; conditions: percent maximal activation relative to control compound
T5 construct: expressed in transfected cells; host or cells: NIH3T3
Description: as §1, §2, §3, §4

Serotonin 5HT2c = molecular target: T6, Serotonin 5HT2c (Homo sapiens, UniProt P28335); assay: R-SAT assay, Serotonin 5HT2c; conditions: inverse agonist mode; percent maximal inhibition relative to repression of basal activity by a control standard compound
T6 construct: expressed in transfected cells; host or cells: NIH3T3
Description: as §1, §2, §3, §4

Dopamine D1 = molecular target: T7, Dopamine D1 (Homo sapiens, UniProt P21728); assay: R-SAT assay, Dopamine D1
T7 construct: expressed in transfected cells; host or cells: NIH3T3
Description: as §1, §2, §3, §4

[1] = percent maximal activation relative to control compound

T7 sequence (P21728 whole entry): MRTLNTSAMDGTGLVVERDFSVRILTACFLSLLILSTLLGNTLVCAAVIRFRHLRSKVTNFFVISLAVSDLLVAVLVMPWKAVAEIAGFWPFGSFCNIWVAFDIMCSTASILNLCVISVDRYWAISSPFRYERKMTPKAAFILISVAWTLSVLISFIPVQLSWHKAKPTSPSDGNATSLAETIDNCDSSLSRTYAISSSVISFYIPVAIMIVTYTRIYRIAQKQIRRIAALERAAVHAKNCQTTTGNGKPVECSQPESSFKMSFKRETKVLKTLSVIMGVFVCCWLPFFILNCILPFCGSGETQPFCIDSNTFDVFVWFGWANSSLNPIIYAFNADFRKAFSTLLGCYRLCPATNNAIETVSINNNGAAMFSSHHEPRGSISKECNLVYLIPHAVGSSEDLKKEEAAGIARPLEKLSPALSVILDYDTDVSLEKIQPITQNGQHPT
T3 sequence (P35367 whole entry): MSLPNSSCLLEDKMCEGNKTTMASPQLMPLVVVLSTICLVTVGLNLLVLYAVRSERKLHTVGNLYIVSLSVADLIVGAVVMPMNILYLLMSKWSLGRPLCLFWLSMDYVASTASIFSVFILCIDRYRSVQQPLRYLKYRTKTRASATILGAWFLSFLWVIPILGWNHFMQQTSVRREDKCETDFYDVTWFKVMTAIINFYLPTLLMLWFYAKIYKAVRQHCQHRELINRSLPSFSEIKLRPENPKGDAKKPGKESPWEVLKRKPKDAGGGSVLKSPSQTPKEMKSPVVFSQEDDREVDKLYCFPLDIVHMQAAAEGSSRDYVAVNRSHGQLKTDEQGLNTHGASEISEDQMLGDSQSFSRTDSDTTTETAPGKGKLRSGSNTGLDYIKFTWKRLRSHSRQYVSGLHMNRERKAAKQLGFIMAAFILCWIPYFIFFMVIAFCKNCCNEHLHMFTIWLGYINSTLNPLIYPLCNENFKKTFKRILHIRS
T5 sequence (Q13324 whole entry): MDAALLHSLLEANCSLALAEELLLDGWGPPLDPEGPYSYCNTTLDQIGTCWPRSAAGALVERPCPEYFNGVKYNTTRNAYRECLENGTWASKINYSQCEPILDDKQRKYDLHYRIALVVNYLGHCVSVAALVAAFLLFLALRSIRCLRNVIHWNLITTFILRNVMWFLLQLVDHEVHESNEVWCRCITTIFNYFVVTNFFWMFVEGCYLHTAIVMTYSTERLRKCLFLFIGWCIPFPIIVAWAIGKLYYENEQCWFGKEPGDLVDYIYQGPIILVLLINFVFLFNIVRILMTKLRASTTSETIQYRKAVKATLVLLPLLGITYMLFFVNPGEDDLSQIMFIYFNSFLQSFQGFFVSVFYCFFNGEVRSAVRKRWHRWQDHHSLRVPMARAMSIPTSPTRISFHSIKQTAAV
T4 sequence (P28566 whole entry): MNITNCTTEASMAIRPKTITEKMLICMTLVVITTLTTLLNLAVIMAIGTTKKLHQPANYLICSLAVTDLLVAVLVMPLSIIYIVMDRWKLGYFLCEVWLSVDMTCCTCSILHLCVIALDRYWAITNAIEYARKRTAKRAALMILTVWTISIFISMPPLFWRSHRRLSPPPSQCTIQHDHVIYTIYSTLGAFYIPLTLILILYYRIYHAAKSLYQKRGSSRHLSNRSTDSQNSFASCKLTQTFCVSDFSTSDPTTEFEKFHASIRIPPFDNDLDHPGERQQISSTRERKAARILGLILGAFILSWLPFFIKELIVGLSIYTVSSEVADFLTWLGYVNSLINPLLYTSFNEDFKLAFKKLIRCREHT
T1 sequence (P32238 whole entry): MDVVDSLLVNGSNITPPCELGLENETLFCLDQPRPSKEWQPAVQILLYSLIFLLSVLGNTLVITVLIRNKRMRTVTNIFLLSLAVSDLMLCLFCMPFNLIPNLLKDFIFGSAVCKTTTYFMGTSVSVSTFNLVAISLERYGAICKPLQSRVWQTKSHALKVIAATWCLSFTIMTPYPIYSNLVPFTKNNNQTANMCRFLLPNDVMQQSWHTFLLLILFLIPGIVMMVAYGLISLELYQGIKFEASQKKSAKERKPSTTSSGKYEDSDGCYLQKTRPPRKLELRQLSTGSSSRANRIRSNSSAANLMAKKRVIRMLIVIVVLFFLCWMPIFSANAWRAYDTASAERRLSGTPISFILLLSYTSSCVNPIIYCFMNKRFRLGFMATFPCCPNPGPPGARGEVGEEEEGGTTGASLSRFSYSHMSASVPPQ
T6 sequence (P28335 33-458): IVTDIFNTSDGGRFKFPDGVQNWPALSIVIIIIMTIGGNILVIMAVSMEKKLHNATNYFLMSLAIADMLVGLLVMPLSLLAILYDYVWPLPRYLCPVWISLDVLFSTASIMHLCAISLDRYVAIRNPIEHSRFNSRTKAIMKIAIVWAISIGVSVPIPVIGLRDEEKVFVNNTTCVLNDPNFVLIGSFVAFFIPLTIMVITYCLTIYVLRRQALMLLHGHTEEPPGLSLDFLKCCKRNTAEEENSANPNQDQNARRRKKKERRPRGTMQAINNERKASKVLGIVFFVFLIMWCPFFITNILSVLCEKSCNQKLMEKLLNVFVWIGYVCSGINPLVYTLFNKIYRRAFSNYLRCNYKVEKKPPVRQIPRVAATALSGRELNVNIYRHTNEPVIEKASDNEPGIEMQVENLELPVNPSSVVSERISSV

CN(C)CCC1(c2ccc(Cl)cc2)Cc2ccccc2C(=O)O1 (centres unmarked) [Formula III] was tested, and the “Agonist % Eff” value (CCKa) was 0%, the EC50 (urotensin II receptor; agonist mode, negative of the calculated potency in Molar, read-out: Agonist EC50 (converted)) was 100 nM and the maximal biological response (urotensin II receptor; compared with the response evoked by the urotensin II peptide) was “equal to or greater than the response evoked by the urotensin II peptide”. The EC50 (urotensin II receptor; functional potency, Example 1 (Method 1), read-out: EC50 for the urotensin II receptor) was 200 nM, the “Agonist % Eff” value (urotensin II receptor; [1]) was 132% and the “Competitive Antagonist % Inh” value (Histamine H1) was 0%. The “Agonist % Eff” value (Serotonin 5HT-1E) was 19%, the “Agonist % Eff” value (CRF2a) was 0% and the “Inverse Agonist % Inh” value (Serotonin 5HT2c) was 0%. For the same molecule, the “Competitive Antagonist % Inh” value (Dopamine D1; competitive antagonist mode, percent maximal inhibition relative to control standard compound) was 0% and the “Agonist % Eff” value (Dopamine D1; [1]) was 0%.
